Assay results as given in US20170305922A1, “CARM1 INHIBITORS AND USES THEREOF” (Epizyme, Inc., priority 2014, published 2017).

Key:
[1] = system: asymmetric di-methyl PABP1 in RKO cells; test: RKO methylation assay: In Cell Western (ICW) for asymmetric di-methyl PABP1 (PABP1me2a); details: Homo sapiens, RKO, 48 h, Cellular-based (PABP1me2a) ICW (In Cell Western) assay
Summary of the method: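 In-cell western on compound-exposed RKO cells (48 hours): asymmetric di-methyl PABP1 detected by antibody at 800 nm, DNA content by DRAQ5 at 700 nm. Percent inhibition from signal ratios against DMSO (minimum) and 20 μM reference compound (maximum) wells; IC50 curves fitted from triplicates.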

Human CARM1 (PRMT4) = target: T1, Human CARM1 (PRMT4) (Homo sapiens, UniProt Q86X55); test: CARM1 enzyme assay on peptide substrates (3H-SAM Flashplate); details: Biochemical assay; CARM1 0.25 nM, 3H-SAM 30 nM, peptide 250 nM; read-out: Biochem IC50
T1 construct: Flag-CARM1-His was eluted with 200 ug/ml FLAG peptide in buffer A; made in house; host or cells: HEK 293F cells infected with recombinant baculovirus (pFastBacMam)
T1 sequence (Q86X55 1-585 isoform Q86X55-1): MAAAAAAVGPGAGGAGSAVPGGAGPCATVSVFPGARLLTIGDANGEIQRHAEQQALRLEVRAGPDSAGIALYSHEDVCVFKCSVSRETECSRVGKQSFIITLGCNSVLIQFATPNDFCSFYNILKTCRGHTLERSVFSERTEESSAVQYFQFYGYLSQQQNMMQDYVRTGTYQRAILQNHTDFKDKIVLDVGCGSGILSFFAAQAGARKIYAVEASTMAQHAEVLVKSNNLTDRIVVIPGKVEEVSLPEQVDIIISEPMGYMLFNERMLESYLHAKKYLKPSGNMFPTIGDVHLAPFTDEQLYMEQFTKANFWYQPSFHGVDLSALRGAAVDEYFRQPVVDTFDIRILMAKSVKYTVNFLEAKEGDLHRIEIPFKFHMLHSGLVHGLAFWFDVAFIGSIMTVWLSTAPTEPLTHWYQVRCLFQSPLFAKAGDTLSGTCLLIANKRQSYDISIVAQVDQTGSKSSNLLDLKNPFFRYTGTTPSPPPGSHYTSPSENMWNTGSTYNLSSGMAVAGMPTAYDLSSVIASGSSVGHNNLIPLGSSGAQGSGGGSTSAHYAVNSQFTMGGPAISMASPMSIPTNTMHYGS

| Compound | IC50 [1] | IC50 (Human CARM1 (PRMT4)) |
| --- | --- | --- |
| CNC[C@@H](O)COc1ccc(Cl)c(-c2nc(-c3c(C)noc3C)c(C)c(N3CC(C)(CO)C3)n2)c1 [Example 252] | 561 nM | 8.01 nM |
| CNC[C@@H](O)COc1ccc(Cl)c(-c2nc(-c3c(C)noc3C)c(C)c(N3Cc4ccnc(OC)c4C3)n2)c1 [Example 212] | 40 nM | 2.1 nM |
| CNC[C@@H](O)COc1cccc(-c2nc(-c3c(C)cnn3C)c(C)c(N3Cc4cccnc4C3)n2)c1 [Example 59] | 292 nM | 1.8 nM |

The next compounds have a lower IC50 [1] than those just listed; values first:

| IC50 [1] | IC50 (Human CARM1 (PRMT4)) | Compound |
| --- | --- | --- |
| 38 nM | 4.4 nM | CCc1cc2c(c(C)n1)CN(c1nc(-c3cc(OC[C@H](O)CNC)ccc3Cl)nc(-c3c(C)noc3C)c1C)C2 [Example 101] |
| 15 nM | 1.9 nM | CNC[C@@H](O)COc1ccc(Cl)c(-c2nc(-c3c(C)c(Cl)nn3C)c(C)c(N3Cc4cnc(N5CCC5)nc4C3)n2)c1 [Example 153] |
